Literature values in PMC11272821, “Mechanistic safety assessment via multi-omic characterisation of systemic pathway perturbations following in vivo MAT2A inhibition” (Archives of Toxicology, 2024).

Design: method as in Agios Pharmaceuticals, AACR-NCI-EORTC 2019
Details: ref Agios Pharmaceuticals, AACR-NCI-EORTC 2019, cited from earlier work

In the case of `COc1ccc(-c2c(Nc3ccccn3)[nH]c3c(C4=CCCCC4)c(-c4ccccc4)nn3c2=O)cc1` [AG-270], the “adverse finding in Phase 1 clinical trial” value (proposed result of UGT1A1 inhibition) is listed as “hyperbilirubinemia” and the “dose limiting toxicity in Phase 1 clinical trial” value is listed as “reversible, acute liver injury”.
